Read-outs that look alike come from different tables or passages of the source.
Tests used:
[1] = tested on: Ambrosia artemisiifolia (AMBEL), common ragweed; test: Postemergence herbicide evaluation, growth of Ambrosia artemisiifolia (AMBEL); type: in vivo; settings: Ambrosia artemisiifolia, post-emergence, percent reduction in plant size relative to untreated control, read-out: AVE. AMBEL; for pest or weed control at 280 g/ha: 280 g ae/ha; for pest or weed control at 560 g/ha: 560 g ae/ha
[2] = tested on: glyphosate resistant Conyza canadensis (L.) (ERICA), horseweed; test: Postemergence herbicide evaluation, growth of Conyza canadensis (ERICA); type: in vivo; settings: Erigeron canadensis, post-emergence, percent reduction in plant size relative to untreated control, read-out: Ave. ERICA; for pest or weed control at 280 g/ha: 280 g ae/ha; for pest or weed control at 560 g/ha: 560 g ae/ha
[3] = tested on: Abutilon theophrasti (ABUTH), velvetleaf; test: Postemergence herbicide evaluation, growth of Abutilon theophrasti (ABUTH); type: in vivo; settings: Abutilon theophrasti, post-emergence, percent reduction in plant size relative to untreated control, read-out: AVE. ABUTH; for pest or weed control at 280 g/ha: 280 g ae/ha; for pest or weed control at 560 g/ha: 560 g ae/ha
[4] = tested on: weeds (ABUTH, AMATA, AMBEL, CHEAL, ERICA); test: Postemergence herbicide evaluation, overall average % weed control across ABUTH, AMATA, AMBEL, CHEAL, ERICA; type: in vivo; settings: post-emergence, average over the five weeds, read-out: Overall Ave % Weed Control; for pest or weed control at 280 g/ha: 280 g ae/ha; for pest or weed control at 560 g/ha: 560 g ae/ha
[5] = Volatility of compounds measured by thermogravimetric analysis (TGA); type: physicochemical
[6] = tested on: Chenopodium album (CHEAL), common lambsquarters; test: Postemergence herbicide evaluation, growth of Chenopodium album (CHEAL); type: in vivo; settings: Chenopodium album, post-emergence, percent reduction in plant size relative to untreated control, read-out: Ave. CHEAL; for pest or weed control at 280 g/ha: 280 g ae/ha; for pest or weed control at 560 g/ha: 560 g ae/ha
[7] = tested on: Amaranthus rudis (AMATA), tall water hemp; test: Postemergence herbicide evaluation, growth of Amaranthus rudis (AMATA); type: in vivo; settings: Amaranthus tuberculatus, post-emergence, percent reduction in plant size relative to untreated control, read-out: Ave. AMATA; for pest or weed control at 280 g/ha: 280 g ae/ha; for pest or weed control at 560 g/ha: 560 g ae/ha

Compound	pest or weed control at 280 g/ha ([1]; 168 h, 7 DAA) [%]	pest or weed control at 560 g/ha ([1]; 168 h, 7 DAA) [%]	pest or weed control at 280 g/ha ([1]; 336 h, 14 DAA) [%]	pest or weed control at 560 g/ha ([1]; 336 h, 14 DAA) [%]	pest or weed control at 280 g/ha ([1]; 504 h, 21 DAA) [%]	pest or weed control at 560 g/ha ([1]; 504 h, 21 DAA) [%]	pest or weed control at 280 g/ha ([2]; 168 h, 7 DAA) [%]	pest or weed control at 560 g/ha ([2]; 168 h, 7 DAA) [%]	pest or weed control at 280 g/ha ([2]; 336 h, 14 DAA) [%]	pest or weed control at 560 g/ha ([2]; 336 h, 14 DAA) [%]	pest or weed control at 280 g/ha ([2]; 504 h, 21 DAA) [%]	pest or weed control at 560 g/ha ([2]; 504 h, 21 DAA) [%]	pest or weed control at 280 g/ha ([3]; 168 h, 7 DAA) [%]	pest or weed control at 560 g/ha ([3]; 168 h, 7 DAA) [%]	pest or weed control at 280 g/ha ([3]; 336 h, 14 DAA) [%]	pest or weed control at 560 g/ha ([3]; 336 h, 14 DAA) [%]	pest or weed control at 280 g/ha ([3]; 504 h, 21 DAA) [%]	pest or weed control at 560 g/ha ([3]; 504 h, 21 DAA) [%]	pest or weed control at 280 g/ha ([4]; 168 h, 7 DAA) [%]	pest or weed control at 560 g/ha ([4]; 168 h, 7 DAA) [%]	further results
O=C(COc1ccc(Cl)cc1Cl)ONC(=O)c1ccc(C(=O)NOC(=O)COc2ccc(Cl)cc2Cl)cc1 [Compound B4]	58	65	88	84	95	87	68	68	85	95	99	100	70	80	78	73	83	84	65	69	pest or weed control at 280 g/ha ([4]; 336 h, 14 DAA): 78%; pest or weed control at 560 g/ha ([4]; 336 h, 14 DAA): 79%; pest or weed control at 280 g/ha ([4]; 504 h, 21 DAA): 83%; pest or weed control at 560 g/ha ([4]; 504 h, 21 DAA): 81%; TGA Data (rate of weight loss, volatility) [5]: 0.3 µg/min; pest or weed control at 280 g/ha ([6]; 168 h, 7 DAA): 63%; pest or weed control at 560 g/ha ([6]; 168 h, 7 DAA): 63%; pest or weed control at 280 g/ha ([6]; 336 h, 14 DAA): 70%; pest or weed control at 560 g/ha ([6]; 336 h, 14 DAA): 68%; pest or weed control at 280 g/ha ([6]; 504 h, 21 DAA): 75%; pest or weed control at 560 g/ha ([6]; 504 h, 21 DAA): 65%; pest or weed control at 280 g/ha ([7]; 168 h, 7 DAA): 68%; pest or weed control at 560 g/ha ([7]; 168 h, 7 DAA): 70%; pest or weed control at 280 g/ha ([7]; 336 h, 14 DAA): 68%; pest or weed control at 560 g/ha ([7]; 336 h, 14 DAA): 78%; pest or weed control at 280 g/ha ([7]; 504 h, 21 DAA): 65%; pest or weed control at 560 g/ha ([7]; 504 h, 21 DAA): 68%
N/C(=N\OC(=O)COc1ccc(Cl)cc1Cl)c1ccc(/C(N)=N/OC(=O)COc2ccc(Cl)cc2Cl)cc1 [Compound B5, (1,4)—N°1, N°4-Bis(2-(2,4-dichlorophenoxy)acetoxy)terephthalimidamide]	18	15	8	15	5	18	5	25	30	35	15	28	0	3	10	3	10	0	13	16	pest or weed control at 280 g/ha ([4]; 336 h, 14 DAA): 14%; pest or weed control at 560 g/ha ([4]; 336 h, 14 DAA): 17%; pest or weed control at 280 g/ha ([4]; 504 h, 21 DAA): 17%; pest or weed control at 560 g/ha ([4]; 504 h, 21 DAA): 18%; TGA Data (rate of weight loss, volatility) [5]: 0.1 µg/min; pest or weed control at 280 g/ha ([6]; 168 h, 7 DAA): 15%; pest or weed control at 560 g/ha ([6]; 168 h, 7 DAA): 13%; pest or weed control at 280 g/ha ([6]; 336 h, 14 DAA): 20%; pest or weed control at 560 g/ha ([6]; 336 h, 14 DAA): 15%; pest or weed control at 280 g/ha ([6]; 504 h, 21 DAA): 40%; pest or weed control at 560 g/ha ([6]; 504 h, 21 DAA): 13%; pest or weed control at 280 g/ha ([7]; 168 h, 7 DAA): 25%; pest or weed control at 560 g/ha ([7]; 168 h, 7 DAA): 25%; pest or weed control at 280 g/ha ([7]; 336 h, 14 DAA): 0%; pest or weed control at 560 g/ha ([7]; 336 h, 14 DAA): 18%; pest or weed control at 280 g/ha ([7]; 504 h, 21 DAA): 15%; pest or weed control at 560 g/ha ([7]; 504 h, 21 DAA): 33%
